Data on 2 substances can be found in patent US20080194970A1 (priority 2005, published 2008).

The conditions of data set [1]: cited from earlier work.
In the next data set the test system is normal prostate cells. The data set is described as follows: topical labeling of prostate cells during surgery, imaged by fibered confocal fluorescence microscopy. It counts as in vivo. Particulars: rat during a surgical procedure. The text has this:
The marker bar indicates 30 microns.
The imaging equipment selected for use in the present invention was a Cell-vizio (purchased from Mauna Kea Technologies), an ultra-high resolution molecular imaging system that employs fibered confocal fluorescence microscopy technology. This system was specifically designed to visualize cellular structures and quantify molecular events in vivo and is composed of an autonomous Laser Scanning Unit, a range of fibered objectives made of tens of thousands of optical fibers, and a dedicated image processing and analysis software package. The system is capable of capturing images at a rate of 12 frames per second in living anesthetized animals. These images have a lateral resolution of the order of a micron, an axial resolution of 15 to 20 μm, a field of view up to 600 μm×500 μm, and can be obtained at depths up to 80 μm. The fibered probes have diameters ranging from 300 μm to 1.8 mm, allowing for access to the narrow spaces posterior to the prostate where the cavernous nerves are located.

Consider Alexa Fluor 488, for which, in data set [1], the water solubility result was “water solubility, with no organic co-solvents required in labeling reactions”. Besides, the photostability entry in data set [1] (compared with fluorescein) is on record as “much greater photostability than fluorescein”.

Turning to acriflavine, the “in vivo labeling of normal prostate cells (FIG. 3)” value in the data set on normal prostate cells is given as “normal prostate cells labeled”.
